Values quoted from earlier work, collected in US20230010484A1, “METHOD FOR THE DECOLORIZATION OF KERATIN MATERIAL THAT HAS BEEN DYED USING A PIGMENT” (Henkel AG & Co. KGaA, priority 2019, published 2023).

Settings: 25° C.

Row | solubility in water (in words) | SMILES | solubility in water
1 | – | O=C([O-])c1c(Cl)c(Cl)c(Cl)c(Cl)c1-c1c2c(Br)cc(=O)c(Br)c-2oc2c(Br)c(O)cc(Br)c12.O=C([O-])c1c(Cl)c(Cl)c(Cl)c(Cl)c1-c1c2c(Br)cc(=O)c(Br)c-2oc2c(Br)c(O)cc(Br)c12.[Na+].[Na+] [Acid Red 92, disodium salt of 3,4,5,6-tetrachloro-2-(1,4,5,8-tetrabromo-6-hydroxy-3-oxoxanthen-9-yl)benzoic acid] | greater than 10 g/L
2 | – | Nc1cc(S(=O)(=O)[O-])cc2cc(S(=O)(=O)[O-])c(N=Nc3ccccc3)c(O)c12.[Na+].[Na+] [Acid Red 33, dinatrium salt of 5-amino-4-hydroxy-3-(phenylazo)-naphthalene-2,7-disulphonate] | about 2.5 g/L
3 | highly soluble | O=C([O-])C1=NN(c2ccc(S(=O)(=O)[O-])cc2)C(=O)C1N=Nc1ccc(S(=O)(=O)[O-])cc1.[Na+].[Na+].[Na+] (stereo not shown) [Acid Yellow 23, trisodium salt of 4,5-dihydro-5-oxo-1-(4-sulfophenyl)-4-((4-sulfophenyl)azo)-1H-pyrazole-3-carboxylic acid] | –
4 | – | O=S(=O)([O-])c1ccc(N=Nc2c(O)ccc3ccccc23)cc1.[Na+] [Acid Orange 7, sodium salt of 4-[(2-hydroxy-1-naphthyl)azo]benzene sulphonate] | more than 7 g/L
